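How tested: cells in 96-well plates exposed to compound for 48 hours at five concentrations. Abbreviation: GI50, concentration required for 50% inhibition of growth.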 The source made the active and inactive calls. Rule as the data show it: active = GI50 up to about 1.1 µM and inactive = higher.
Columns and labels:
Test in all cases: growth of human tumour cells (NCI), 48 h
[1] = test system: SN12C
[2] = test system: UO-31
[3] = test system: TK-10
[4] = test system: HT-29
[5] = test system: SF-295
[6] = test system: SK-MEL-2
[7] = test system: PC-3
[8] = test system: HOP-92
[9] = test system: Hs-578T
[10] = test system: HCT-15
[11] = test system: SK-MEL-5
[12] = test system: UACC-62
[13] = test system: CAKI-1
[14] = test system: ACHN
[15] = test system: OVCAR-5
[16] = test system: SW-620
[17] = test system: NCI-H460
[18] = test system: LOX IMVI
[19] = test system: A498
[20] = test system: U-251
[21] = test system: NCI/ADR-RES
[22] = test system: UACC-257
[23] = test system: NCI-H522
[24] = test system: CCRF-CEM
[25] = test system: SF-268
[26] = test system: M14
[27] = test system: SNB-19
[28] = test system: BT-549
[29] = test system: K562
[30] = test system: NCI-H226
[31] = test system: SK-OV-3
[32] = test system: NCI-H23
[33] = test system: HCT-116
[34] = test system: OVCAR-8
[35] = test system: A549
[36] = test system: DU-145
[37] = test system: SR
[38] = test system: 786-0
[39] = test system: MDA-N
[40] = test system: MCF7
[41] = test system: SNB-75
[42] = test system: RPMI-8226
[43] = test system: MDA-MB-435
[44] = test system: HL-60
[45] = test system: HCC 2998
[46] = test system: COLO 205
[47] = test system: MDA-MB-231
[48] = test system: OVCAR-3
[49] = test system: Malme-3M
[50] = test system: SF-539
[51] = test system: IGROV-1
[52] = test system: EKVX
[53] = test system: RXF 393
[54] = test system: HOP-62
[55] = test system: SK-MEL-28
[56] = test system: MOLT-4
[57] = test system: OVCAR-4
[58] = test system: KM12
[59] = test system: T47D

Compound: CC1CCC2c3c([nH]c4ccccc34)C3C(=O)N(C4CCCCC4)C(=O)C3C2C1 (configuration not stated)
- GI50 [1]: 22.9 µM (inactive)
- GI50 [2]: 19.8 µM (inactive)
- GI50 [3]: 13.4 µM (inactive)
- GI50 [4]: > 100 µM (inactive)
- GI50 [5]: 16.3 µM (inactive)
- GI50 [6]: 17.4 µM (inactive)
- GI50 [7]: 38.3 µM (inactive)
- GI50 [8]: 21 µM (inactive)
- GI50 [9]: 13 µM (inactive)
- GI50 [10]: 49.8 µM
- GI50 [11]: 17.9 µM (inactive)
- GI50 [12]: 12.2 µM (inactive)
- GI50 [13]: 14 µM (inactive)
- GI50 [14]: 13.5 µM (inactive)
- GI50 [15]: 18.5 µM (inactive)
- GI50 [16]: 67.3 µM (inactive)
- GI50 [17]: 26 µM (inactive)
- GI50 [18]: 52.5 µM (inactive)
- GI50 [19]: 22 µM (inactive)
- GI50 [20]: 12.7 µM (inactive)
- GI50 [21]: 36.5 µM (inactive)
- GI50 [22]: 46.3 µM (inactive)
- GI50 [23]: > 100 µM (inactive)
- GI50 [24]: 57.7 µM (inactive)
- GI50 [25]: 13.6 µM (inactive)
- GI50 [26]: 23.7 µM (inactive)
- GI50 [27]: 16.4 µM (inactive)
- GI50 [28]: 14.1 µM (inactive)
- GI50 [29]: 19 µM (inactive)
- GI50 [30]: 16.5 µM (inactive)
- GI50 [31]: 18 µM (inactive)
- GI50 [32]: 23.7 µM (inactive)
- GI50 [33]: 11.9 µM (inactive)
- GI50 [34]: 15.4 µM (inactive)
- GI50 [35]: 19.1 µM (inactive)
- GI50 [36]: 30 µM (inactive)
- GI50 [37]: 29.2 µM (inactive)
- GI50 [38]: 6.85 µM (inactive)
- GI50 [39]: 33.3 µM (inactive)
- GI50 [40]: > 10 µM (inactive)
- GI50 [41]: 2.78 µM (inactive)
- GI50 [42]: 38.2 µM (inactive)
- GI50 [43]: 55.3 µM (inactive)
- GI50 [44]: > 100 µM (inactive)
- GI50 [45]: > 100 µM (inactive)
- GI50 [46]: > 100 µM (inactive)
- GI50 [47]: 11.8 µM (inactive)
- GI50 [48]: 19.9 µM (inactive)
- GI50 [49]: 29.3 µM (inactive)
- GI50 [50]: 21.9 µM (inactive)
- GI50 [51]: 17.2 µM (inactive)
- GI50 [52]: 14.8 µM (inactive)
- GI50 [53]: 13.7 µM (inactive)
- GI50 [54]: 14.4 µM (inactive)
- GI50 [55]: 15.1 µM (inactive)

Compound: SC1=NNC2(C(Cl)=N1)c1ccccc1-c1ccccc12
- GI50 [1]: > 10 µM (inactive)
- GI50 [2]: 6.44 µM (inactive)
- GI50 [56]: > 10 µM (inactive)
- GI50 [3]: > 10 µM (inactive)
- GI50 [8]: > 10 µM (inactive)
- GI50 [9]: > 10 µM (inactive)
- GI50 [10]: > 10 µM
- GI50 [11]: > 10 µM (inactive)
- GI50 [12]: > 10 µM (inactive)
- GI50 [13]: > 10 µM (inactive)
- GI50 [16]: > 10 µM (inactive)
- GI50 [17]: > 10 µM (inactive)
- GI50 [18]: > 10 µM (inactive)
- GI50 [19]: > 10 µM (inactive)
- GI50 [20]: > 10 µM (inactive)
- GI50 [21]: > 10 µM (inactive)
- GI50 [22]: > 10 µM (inactive)
- GI50 [24]: > 10 µM (inactive)
- GI50 [25]: > 10 µM (inactive)
- GI50 [26]: > 10 µM (inactive)
- GI50 [28]: > 10 µM (inactive)
- GI50 [29]: > 10 µM (inactive)
- GI50 [30]: > 10 µM (inactive)
- GI50 [31]: > 10 µM (inactive)
- GI50 [32]: > 10 µM (inactive)
- GI50 [34]: > 10 µM (inactive)
- GI50 [35]: > 10 µM (inactive)
- GI50 [57]: > 10 µM (inactive)
- GI50 [36]: > 10 µM (inactive)
- GI50 [37]: > 10 µM (inactive)
- GI50 [38]: > 10 µM (inactive)
- GI50 [39]: > 10 µM (inactive)
- GI50 [40]: > 10 µM (inactive)
- GI50 [58]: > 10 µM (inactive)
- GI50 [41]: > 10 µM (inactive)
- GI50 [42]: > 10 µM (inactive)
- GI50 [44]: > 10 µM (inactive)
- GI50 [45]: > 10 µM (inactive)
- GI50 [46]: > 10 µM (inactive)
- GI50 [47]: > 10 µM (inactive)
- GI50 [49]: > 10 µM (inactive)
- GI50 [50]: > 10 µM (inactive)
- GI50 [51]: > 10 µM (inactive)
- GI50 [52]: > 10 µM (inactive)
- GI50 [59]: > 10 µM (inactive)
- GI50 [54]: > 10 µM (inactive)
- GI50 [55]: > 10 µM (inactive)

Compound: Cc1cn(C2CC(O)C(Cn3nncc3Cn3cnc4c(N)ncnc43)O2)c(=O)[nH]c1=O (configuration not stated)
- GI50 [1]: > 100 µM (inactive)
- GI50 [2]: > 100 µM (inactive)
- GI50 [56]: > 100 µM (inactive)
- GI50 [3]: > 100 µM (inactive)
- GI50 [5]: > 100 µM (inactive)
- GI50 [6]: > 100 µM (inactive)
- GI50 [7]: > 100 µM (inactive)
- GI50 [8]: > 100 µM (inactive)
- GI50 [9]: > 100 µM (inactive)
- GI50 [10]: > 100 µM
- GI50 [11]: > 100 µM (inactive)
- GI50 [12]: > 100 µM (inactive)
- GI50 [13]: > 100 µM (inactive)
- GI50 [14]: > 100 µM (inactive)
- GI50 [15]: > 100 µM (inactive)
- GI50 [16]: > 100 µM (inactive)
- GI50 [18]: > 100 µM (inactive)
- GI50 [19]: > 100 µM (inactive)
- GI50 [20]: > 100 µM (inactive)
- GI50 [21]: > 100 µM (inactive)
- GI50 [22]: > 100 µM (inactive)
- GI50 [23]: > 100 µM (inactive)
- GI50 [24]: > 100 µM (inactive)
- GI50 [25]: > 100 µM (inactive)
- GI50 [26]: > 100 µM (inactive)
- GI50 [27]: > 100 µM (inactive)
- GI50 [28]: > 100 µM (inactive)
- GI50 [30]: > 100 µM (inactive)
- GI50 [31]: > 100 µM (inactive)
- GI50 [32]: > 100 µM (inactive)
- GI50 [33]: > 100 µM (inactive)
- GI50 [34]: 26.4 µM (inactive)
- GI50 [35]: > 100 µM (inactive)
- GI50 [57]: > 100 µM (inactive)
- GI50 [36]: > 100 µM (inactive)
- GI50 [37]: > 100 µM (inactive)
- GI50 [38]: > 100 µM (inactive)
- GI50 [39]: > 100 µM (inactive)
- GI50 [40]: > 100 µM (inactive)
- GI50 [58]: > 100 µM (inactive)
- GI50 [41]: 58.3 µM (inactive)
- GI50 [42]: > 100 µM (inactive)
- GI50 [43]: > 100 µM (inactive)
- GI50 [44]: > 100 µM (inactive)
- GI50 [45]: > 100 µM (inactive)
- GI50 [46]: > 100 µM (inactive)
- GI50 [48]: > 100 µM (inactive)
- GI50 [49]: > 100 µM (inactive)
- GI50 [50]: > 100 µM (inactive)
- GI50 [51]: > 100 µM (inactive)
- GI50 [52]: > 100 µM (inactive)
- GI50 [53]: > 100 µM (inactive)
- GI50 [59]: > 100 µM (inactive)
- GI50 [54]: > 100 µM (inactive)
- GI50 [55]: > 100 µM (inactive)

From ChEMBL document CHEMBL1201862, “PubChem BioAssay data set” (2004)
